Test results: patent US20120083486A1, “KIT, COMPOSITION, PRODUCT OR MEDICAMENT FOR TREATING COGNITIVE IMPAIRMENT” (ZENYAKU KOGYO KABUSHIKIKAISHA, priority 2008, published 2012)

Columns and labels:
[1] = system: scopolamine-induced cognitive impairment; assay: passive avoidance task, scopolamine-induced cognitive impairment in mice; assay type: in vivo; conditions: alone, compared with 1% CMC and scopolamine group
Method: Eight to nine week old male ICR strain mice (Charles River Laboratories Japan, Inc.) were used in the experiment. They were housed in a cage in groups of 3 or 4 mice, in a room maintained at around 22 degree C. under 12 hour light/dark cycles. Food and water were provided ad libitum. All animal care and treatment was conducted in accordance with the Guidelines for the Care and Use of Laboratory Animals, established at the Central Research Laboratory, Zenyaku Kogyo Co., Ltd.
Compound 1 and donepezil were suspended in 1% carboxymethyl cellulose (CMC). […] For the coadministration studies of Compound 1 and donepezil, both drug suspensions were mixed together and this mixed suspension was […]. All drugs were prepared immediately before use and orally administered at a dosage of 10 ml/kg.
The passive avoidance apparatus (Neuroscience Inc.) consisted of an illuminated chamber and a larger dark chamber. Two chambers were separated by a guillotine door. Oral administration of compound 1 at doses of 0.0001 mg/kg or 0.001 mg/kg and/or donepezil at doses of 0.01 and 0.1 mg/kg was given 60 min before the acquisition trial. […] The matched control group only received the vehicle. During the acquisition trial, each mouse was placed in the illuminated chamber. Immediately after the entry into the dark chamber, the door was closed and an inescapable scrambled electric shock (100 V, 0.4 mA, 1.5 sec) was delivered through the floor grid. Twenty-four hours later, each mouse was placed in the illuminated chamber for retention trial. The interval between placement in the illuminated chamber and entry into the dark chamber was measured as step through latency (maximum 300 seconds).
A P level of <0.05 was considered indicative of statistical significance for the tests.

[2] = system: extracellular levels of acetylcholine (ACh) in a rat hippocampus; assay: extracellular levels of acetylcholine (ACh) in rat hippocampus (microdialysis, HPLC-ECD); assay type: in vivo; conditions: alone, compared with 1% CMC group
Method: Food and water were provided ad libitum. All animal care and treatment was conducted in accordance with the Guidelines for the Care and Use of Laboratory Animals, established at the Central Research Laboratory, Zenyaku Kogyo Co., Ltd.

| SMILES | step-through latency in retention trial ([1]; compound 1 0.0001 mg/kg oral) | step-through latency in retention trial ([1]; compound 1 0.001 mg/kg oral, P<0.05) | extracellular level of ACh in the hippocampus ([2]; compound 1 0.001 mg/kg oral) | step-through latency in retention trial ([1]; donepezil 0.01 mg/kg oral) | step-through latency in retention trial ([1]; donepezil 0.1 mg/kg oral, P<0.05) | extracellular level of ACh in the hippocampus ([2]; donepezil 1 mg/kg oral) |
| --- | --- | --- | --- | --- | --- | --- |
| O=C1N=C2C=CC=CN2C12Cc1ccccc1C2 [compound 1, spiro[imidazo[1,2-a]pyridin-2(3H)-one-3,2′-indan]] | did not significantly prolong the step-through latency | prolonged the step-through latency | did not significantly increase | – | – | – |
| COc1cc2c(cc1OC)C(=O)C(CC1CCN(Cc3ccccc3)CC1)C2 (stereo not drawn) [donepezil] | – | – | – | did not significantly prolong the step-through latency | prolonged the step-through latency | did not significantly increase |
